Reference: US20130196991A1, “SUBSTITUTED INDOLES, ANTIVIRAL ACTIVE COMPONENT, METHOD FOR PREPARATION AND USE THEREOF” (priority 2010, published 2013)
Structures can show the parent of a compound that is named as a salt.

test system: JFH-1 HCV; assay: microbe, parasite or virus in culture; type: cell-based, hepatitis C virus (HCV); conditions: Hepatitis C virus, Huh-7, read-out: Inhibition of hepatitis C virus (IC50)
Procedure: Determination of antiviral activity of compounds of the general formula 1 towards hepatitis C viruses.
Determination of antiviral activity of compounds of the general formulas 1, 1.1, 1.2, 1.3, 1.3.1, 1.3.1.1 towards HCV was carried out on Huh7 cell culture. Immune in vitro (ELISA—enzyme-linked immunosorbent assay) test ELISA towards HCV virus cor-antigen was used. By means of this test inhibition effectiveness of antigen production (and, consequently, virus replication) by tested compounds in cells infected by JFH-1 virus was measured. Used in this experiment Huh7 cell culture having been infected with HCV virus is capable to support full range of viral replication.
Recombinant JFH-1 HCV virus used in the experiment was prepared by means of transfection of Huh7 cells by RNA JFH-1, prepared by transcription in vitro. JFH-1 DNA [Wakita, T. u ∂p. Production of Infectious Hepatitis C Virus in Tissue Culture from a Cloned Viral Genome. Nature Medicine 2005, 11:791-796.]) used as DNA matrix for transcription (NCBI, catalogue number AB047639, was synthesized chemically.
Huh7 cells were sowed in 96-well plates (3.0×10^3 cells in every well) Huh-7 medium (50 μl per every well). 9 solutions of every tested compound in Huh-7 medium in the range of concentrations of 0.09-200 μM were prepared. In 4 h after cell sowing the initial solution was removed by aspiration, after that 50 μl of tested compound solution and 50 μl of JFH-1 HCV were added to every well. As a result, the final concentrations of the tested compounds were in the range of 0.045-100 μM. If required the step of infection was carried out in 24 h after addition of tested compounds. After incubation for 16 h viral medium was removed by aspiration, and the tested compounds were added to the cultures in initial concentration to final value of 200 μl. The cells and tested compounds were incubated additionally for 4 days at 37° C. in the atmosphere of air containing 5% CO2. After the removal of nutrient solution the cells were fixed by addition of acetone/methanol (1:1) mixture in amount of 250 μl/well for 1 minute, washed three times with Phosphate Buffer (PBS buffer and then they were blocked by 10% FBS-PBS solution (150 μl/well)) for 1 h at room temperature. Each well was washed three times with PBS solution, incubated with mouse monoclonal antibodies to HCV cor-antigen (Affinity BioReagents, Catalogue: MA1-080), dissolved in FBS-PBS buffer (100 μl/well, prepared from the initial concentrate, diluted in the ratio 1:500 in 10% FBS-PBS), for 2 h at 37° C. Each well was washed three times with PBS solution, incubated with antibodies specific to mouse immunoglobulins, conjugated with horseradish peroxidase (HRP, 100 mkl/well of solution prepared from the initial concentrate, diluted in ratio 1:2500 in 10% FBS-PBS) for 1 h at 37° C. Each well was washed three times with PBS solution, then treated with OPD solution in amount of 100 μl/well (prepared by dilution of one OPD tablet in B 12 ml of citrate/phosphate buffer with addition of 5 μl of 30% H2O2) for 30 min in darkness at room temperature. The reaction was stopped by addition of 2N H2SO4 (100 μl/well), after that optical density at 490 nm was measured. IC50 value representing the concentration of the tested compound at which virus replication is lowered twice was calculated for every tested compound using Xlfit program according to the method described in [Wakita, T. u ∂p. (2005). Production of Infectious Hepatitis C Virus in Tissue Culture from a Cloned Viral Genome. Nature Medicine; 11:791-796.].

Compound	IC50
CC(C)c1ccc2c(c1)c1c3n2CCN(CC(N)=O)C3CCC1 (centres unmarked) [1.2(1), 2-(8-isopropyl-1,2,3a,4,5,6-hexahydro-3H-pyrazino[3,2,1-jk]carbazol-3-yl)-acetamide]	1.7 µM
CCCN1CCN(C(=O)C2CCN(Cc3cc4ccccc4n3C)CC2)CC1 [1.3.1.1(14) * 2 HCl, 1-Methyl-2-({4-[(4-propylpiperazin-1-yl)carbonyl]piperidin-1-yl}methyl)-1H-indole dihydrochloride]	2.1 µM
CN1CCN(C(=O)C2CCN(Cc3cc4ccccc4n3C)CC2)CC1 [1.3.1.1(15) * 2 HCl, 1-Methyl-2-({4-[(4-methylpiperazin-1-yl)carbonyl]piperidin-1-yl}methyl)-1H-indole]	2.4 µM
c1ccc(CN2CCCn3c4c(c5cc(C6CCCCC6)ccc53)CCCC42)cc1 (centres unmarked) [1.2(8)]	1.6 µM
CCCN1CCN(C(=O)C2CCN(Cc3cc4ccccc4n3Cc3ccc(Cl)cc3)CC2)CC1 [1.3.1.1(13), {1-[1-(4-chlorobenzyl)-1H-indol-2-ylmethyl]-piperidin-4-yl}-(4-propylpiperazin-1-yl)-methanone]	0.3 µM
CCCN1CCN(C(=O)C2CCCN(Cc3cc4ccccc4n3Cc3ccc(Cl)cc3)C2)CC1 (centres unmarked) [1.3.2.1(13) * 2 HCl, 1-(4-chlorobenzyl)-2-({3-[(4-propylpiperazin-1-yl)carbonyl]piperidin-1-yl}methyl)-1H-indole dihydrochloride]	0.4 µM
Clc1ccc(Cn2c(CN3CCCC3)nc3ccccc32)cc1 [I Control, Clemizole, reference compound]	9 µM

same assay, conditions: Huh7 cell culture infected with recombinant JFH-1 HCV; ELISA of cor-antigen; concentration at which virus replication is lowered twice; read-out: Inhibition of hepatitis C virus (IC50)

Compound	IC50
CCCN1CCN(C(=O)C2CCCN(Cc3cc4ccccc4n3C)C2)CC1 (centres unmarked) [1.3.2.1(14) * 2 HCl, 1-Methyl-2-({3-[(4-propylpiperazin-1-yl)carbonyl]piperidin-1-yl}methyl-1H-indoledihydrochloride]	2.1 µM
